Laboratory results from US9622995B2, “Treatment of disorders associated with G protein-coupled receptor 35 (GPR35)” (TEMPLE UNIVERSITY—OF THE COMMONWEALTH SYSTEM OF HIGHER …, priority 2009, dated 2017).
pEC50: −log10 of the molar value.

Biological target: GPR35a (Homo sapiens, UniProt Q9HC97, S294R)
Assay: β-arrestin2-GFP redistribution/aggregation in UGPR35β cells
Format: cell-based
Parameters: expressed in transfected cells
Conditions: compared with the binaphthyl compounds
From the text: This cellular assay utilizes the intracellular β-arrestin protein as a reporter of receptor activity. […] Upon agonist-mediated GPCR activation, β-arrestins rapidly redistribute en masse to ligand-activated plasma membrane receptors (on the other hand, β-arrestins remain in the cytosol upon antagonist binding to the receptor). Activated GPCR/β-arrestin complexes will concentrate in clathrin-coated pits and/or internal vesicles where most GPCRs normally undergo internalization. At this juncture, the β-arrestin either (i) dissociates and returns to the cytoplasm, or (ii) further redistributes with the receptor into an intracellular endosomal vesicle, depending on the receptor type. It is the agonist-induced redistribution of β-arrestin-GFP into progressively smaller compartments (cytosolic compartment>plasma membrane>coated pit>endosomal compartment) that enables imaging of receptor activation.
This cell line is herein referred to as UGPR35β. Selected cells were maintained at 200 μg/ml G418® and 100 μg/ml Zeocin® at 37° C. and 5% CO2.
U20S cells expressing HA-GPR35a/βarr2-GFP (also known as UGPR35β cells) were plated in a 24-well plate onto coverslips that were coated with poly-D-lysine (0.02 mg/ml; Sigma-Aldrich, St. Louis, Mo., USA) for 1 hour. Cells were maintained at 37° C., 5% CO2 until ready for experiment (90% confluent). Cells were washed once with Hanks' balanced salt solution (HBSS, Cellgro, Mediatech, Inc, Manassas, Va., USA) comprising CaCl2 0.14 g/L, KCl 0.4 g/L, KH2PO4 0.06 g/L, MgSO4 0.097 g/L, NaCl 8 g/L, Na2HPO4 0.047 g/L, NaHCO3 0.35 g/L, and D-glucose 1.0 g/L. For receptor activation, agonist-evoked redistribution of βarr2-GFP was measured by applying the drug for 40 minutes. For measuring the effects of antagonist, agonist and antagonist were co-applied.
Cells were then fixed with 4% paraformaldehyde for 20 minutes at room temperature, followed by three washes with HBSS.
βarr2-GFP aggregates were identified by a wavelet-based, Microsoft Windows-compatible computer program written in the MatLab programming environment. A program algorithm extracts from two dimensional images those pixels that generate objects of interest that fall within a predetermined range of sizes and intensities and that are embedded among widely varying local backgrounds (L. Barak, available from the Duke University GPCR Assay Bank). Concentration-effect curves for agonist-mediated receptor activation were analyzed by non-linear regression techniques using GraphPad Prism 4.0 software (GraphPad) and data were fitted to sigmoidal dose-response curves to obtain EC50 or IC50 values. Statistical analysis was performed using one-way analysis of variance (ANOVA) followed by Dunnett's post-test or two-tailed unpaired student t test. P values of <0.05 are considered significant.
A prototypical U2OS osteosarcoma cell line that permanently expresses β-arrestin-GFP and N-terminal triple HA-tagged human GPR35a was used to screen ligands for agonism or antagonism against the GPR35 receptor. […] Endogenous receptors are invisible to the assay because there are too few endogenous receptors of any type compared to the number of β-arrestin molecules in the cell to provide a measurable response.
Upon agonist-mediated GPCR activation, β-arrestins rapidly redistribute en masse to ligand-activated plasma membrane receptors, and then the activated GPCR/arrestin complexes concentrate in clathrincoated pits and/or internal vesicles.
Concentration response curves for β-arrestin2 aggregation were obtained for compounds of interest. For this study, UGPR35β cells were treated with different concentrations of a compound of interest and images of the cells (acquired in triplicate in three or more independent experiments) were analyzed for fluorescence.

GPR35a, sequence (Q9HC97 whole entry S294R): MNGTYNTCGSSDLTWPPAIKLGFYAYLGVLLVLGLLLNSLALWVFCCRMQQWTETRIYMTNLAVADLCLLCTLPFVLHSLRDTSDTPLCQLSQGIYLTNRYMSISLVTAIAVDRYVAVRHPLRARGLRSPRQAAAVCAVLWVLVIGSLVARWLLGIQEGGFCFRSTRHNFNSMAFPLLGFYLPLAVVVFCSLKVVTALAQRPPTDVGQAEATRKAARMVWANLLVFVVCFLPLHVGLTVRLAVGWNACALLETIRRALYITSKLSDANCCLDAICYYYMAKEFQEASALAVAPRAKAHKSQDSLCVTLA

Compound | potency as GPR35 agonist, in words
O=C(O)c1cc2ccccc2cc1O [Compound 8, 3-hydroxy-2-naphthoic acid] | much less potent

Same assay, conditions: concentration response analysis, read-out: β-arrestin response (EC50)

Compound | pEC50
O=C(O)c1cc2cc(Br)ccc2c(Cc2c(O)c(C(=O)O)cc3cc(Br)ccc23)c1O [Compound 3, 7,7′-dibromo-pamoic acid] | 6.77
O=C(O)c1cc2ccccc2cc1O [Compound 8, 3-hydroxy-2-naphthoic acid] | 4.07
O=C(O)c1cc2ccccc2c(-c2c(O)c(C(=O)O)cc3ccccc23)c1O [Compound 4, 1,1′-binaphthyl-2,2′-diol-3,3′-dicarboxylic acid] | 6.54

Same assay, conditions: concentrations up to 30 μM

Compound | activation of GPR35 (distribution of βarr2-GFP different from basal state)
Cc1c(/C=N/N2CCCCC2)nn(-c2ccc(Cl)cc2Cl)c1-c1ccc(Cl)cc1 [PIMSR1, 5-(4-chlorophenyl)-1-(2,4-dichlorophenyl)-4-methyl-3-[(E)-piperidinoiminomethyl]-1H-pyrazole] | None of the compounds at concentrations up to 30 μM activated GPR35
CCCCCCC(C)(C)c1cc(O)c2c(c1)OC(C)(C)[C@@H]1CC=C(CO)C[C@@H]21 [HU-210, (6aR,10aR)-9-(hydroxymethyl)-6,6-dimethyl-3-(2-methyloctan-2-yl)-6a,7,10,10a-tetrahydrobenzo[c]chromen-1-ol] | None of the compounds at concentrations up to 30 μM activated GPR35
CCCCCCC(C)(C)c1cc(O)c2c(c1)OC(C)(C)C1CCC(C)CC21 (centres unmarked) [AM4056, 1-hydroxy-1′,1′-dimethylheptylhexahydrocannabinol] | None of the compounds at concentrations up to 30 μM activated GPR35
lysophosphatidic acid | None of the compounds at concentrations up to 30 μM activated GPR35
CCCCC/C=C\C/C=C\C/C=C\C/C=C\CCCC(=O)NCCO [anandamide] | None of the compounds at concentrations up to 30 μM activated GPR35
CCCCCc1cc(O)c2c(c1)OC(C)(C)c1ccc(C)cc1-2 [cannabinol] | None of the compounds at concentrations up to 30 μM activated GPR35
CCCCCc1cc(O)c2c(c1)OC(C)(C)[C@@H]1CCC(C)=C[C@@H]21 [delta-9-tetrahydrocannabinol] | None of the compounds at concentrations up to 30 μM activated GPR35
C=C(C)[C@@H]1CCC(C)=C[C@H]1c1c(C)cc(O)cc1O [Compound O-1602, 5-methyl-4-[(1R,6R)-3-methyl-6-(1-methyethenyl)-2-cyclohexen-1-yl]-1,3-benzenediol] | None of the compounds at concentrations up to 30 μM activated GPR35
5-(4-chloro-3-methylphenyl-1-[(4-methylphenyl)methyl]-N-[(1S,2S,4R)-1,3,3-trimethylbicyclo[2.2.1]hept-2-yl]-1H-pyrazole-3-carboxamide [SR144528] | None of the compounds at concentrations up to 30 μM activated GPR35
Cc1c(C(=O)c2cccc3ccccc23)c2cccc3c2n1[C@H](CN1CCOCC1)CO3 [WIN55212-2, (R)-(+)-[2,3-dihydro-5-methyl-3-(4-morpholinylmethyl)pyrrolo[1,2,3-de)-1,4-benzoxazin-6-yl]-1-napthalenylmethanone] | None of the compounds at concentrations up to 30 μM activated GPR35
CCCCCCC(C)(C)c1ccc([C@@H]2C[C@H](O)CC[C@H]2CCCO)c(O)c1 [CP55,940, 2-[(1R,2R,5R)-5-hydroxy-2-(3-hydroxypropyl)cyclohexyl]-5-(2-methyloctan-2-yl)phenol] | None of the compounds at concentrations up to 30 μM activated GPR35
lysophosphatidylinositol | None of the compounds at concentrations up to 30 μM activated GPR35
CCCn1c(C)c(C(=O)c2cccc3ccccc23)c2ccccc21 [JWH-015, (2-methyl-1-propyl-1H-indol-3-yl)-1-naphthalenylmethanone] | None of the compounds at concentrations up to 30 μM activated GPR35
